Experimental findings from paper PMC12118337, “Development of a Peptide Inhibitor Targeting the C‐SH2 Domain of the SHP2 Phosphatase” (Chembiochem, 2025) are described below.

Non-standard residues stand in square brackets, D forms with d. Residues, ends and D or L forms follow the SMILES beside them. pY = N[C@@H](Cc1ccc(OP(=O)(O)O)cc1)C(=O)O

The target in one assay is T1, full‐length SHP2 (Homo sapiens, UniProt Q06124).
T1 construct: 1–525) proteins were prepared; His-SUMO3 (pETM11-SUMO3 vector) (N, cleaved yes); made in house; host or cells: E. coli BL21(DE3)
T1 sequence (Q06124 1-525): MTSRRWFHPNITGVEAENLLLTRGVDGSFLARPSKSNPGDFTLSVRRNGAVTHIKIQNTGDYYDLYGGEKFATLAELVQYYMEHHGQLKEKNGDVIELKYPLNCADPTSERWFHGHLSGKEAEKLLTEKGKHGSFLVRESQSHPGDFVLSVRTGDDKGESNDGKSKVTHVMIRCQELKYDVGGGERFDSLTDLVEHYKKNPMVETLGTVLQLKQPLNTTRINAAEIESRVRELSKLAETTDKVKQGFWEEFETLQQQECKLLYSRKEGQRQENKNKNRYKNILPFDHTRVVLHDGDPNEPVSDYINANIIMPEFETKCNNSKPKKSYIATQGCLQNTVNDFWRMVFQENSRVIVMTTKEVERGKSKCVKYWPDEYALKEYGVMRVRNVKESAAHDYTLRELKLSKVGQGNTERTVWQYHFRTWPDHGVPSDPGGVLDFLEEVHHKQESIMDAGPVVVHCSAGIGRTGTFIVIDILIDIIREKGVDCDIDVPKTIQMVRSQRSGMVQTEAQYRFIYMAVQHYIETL
As to the kind of experiment: DiFMUP phosphatase assay, peptide activation (no activator). It counts as biochemical. As to conditions: 0.5 nM full-length SHP2, no tandem activator, peptide 0.096 nM – 51.2 µM. The method, then:
6. DiFMUP phosphatase assays
SHP2 dephosphorylation of the fluorogenic substrate 6,8-difluoro-4-methylumbiliferyl phosphate (DiFMUP) was measured to evaluate the effect of acetylated peptides on SHP2 activity. Final concentrations of 0.5 nM full-length SHP2, 200 µM DiFMUP (Invitrogen) and 26 nM bisphosphorylated tandem ITIM-[dPEG4]2-ITSM (CASLO ApS) were used, unless stated otherwise, per well in 96-well plates (OptiPlate-96 F Black; PerkinElmer). For peptide activation assays, each well contained 60 µL of reaction buffer (50 mM HEPES pH 7.6, 150 mM NaCl, 1 mM EDTA, 0.05% Tween 20, freshly added 5 mM DTT), 10 µL of SHP2 and 20 µL of the test peptide (0.096 nM – 51.2 µM final concentration). For peptide inhibition assays in the presence of a SHP2 activator, each well contained 40 µL of reaction buffer (50 mM HEPES pH 7.6, 150 mM NaCl, 1 mM EDTA, 0.05% Tween 20, freshly added 5 mM DTT), 10 µL of SHP2 and 40 µL of previously mixed bisphosphorylated tandem ITIM-[dPEG4]2-ITSM activator and test peptide (0.096 nM – 51.2 µM or 0.376 nM – 200 µM final concentration). […] The fluorescence was immediately measured on a Synergy H1 Microplate Reader (BioTek) with the excitation and emission monitored at 358 nm and 452 nm, respectively, over 30 minutes. Data were analysed in Excel 2016 by subtracting background values from emission values and calculating the slope of the emission profiles. […]

A further assay deals with T2, SHP2 C‐SH2 domain (Homo sapiens, UniProt Q06124).
T2 construct: SHP2 N-SH2 domain (1–105), C-SH2 domain (106–220), PTP domain (224–541) and; His6 (pETM22 vector) (N, cleaved yes); made in house; host or cells: E. coli BL21(DE3)
T2 sequence (Q06124 106-220): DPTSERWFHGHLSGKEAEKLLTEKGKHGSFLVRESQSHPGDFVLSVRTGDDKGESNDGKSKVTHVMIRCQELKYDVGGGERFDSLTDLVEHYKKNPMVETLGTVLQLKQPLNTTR
As to the kind of experiment: Isothermal titration calorimetry (ITC), SHP2 C-SH2 domain. It counts as binding. As to conditions: 20 mM Tris-HCl pH 7.6, 150 mM NaCl, 1:1 stoichiometry assumed, one experiment, read-out: K D, C‐SH2 (ITC). As to the method:
(§1) concentration of 100 nM in a final volume of 200 µL. For baseline subtraction, each peptide was added to FP buffer, instead of protein, with a final peptide concentration of 100 nM in a final volume of 200 µL. Samples were mixed gently then 3 x 60 µL of each sample was transferred into triplicate wells in a 96-well plate (OptiPlate-96 F Black; PerkinElmer). The FP was immediately measured on a Synergy H1 Microplate Reader (BioTek) with the excitation and emission monitored at 485 nm and 528 nm, respectively, over 30 minutes. FP values were automatically calculated by the Gen5 3.03 (BioTek) software associated with the microplate reader. Data were analysed in Excel 2016 by subtracting baseline values from FP values at 10 minutes. Data were then further analysed in GraphPad Prism 6 by plotting the baseline subtracted FP values against the protein concentration and fitting the data to a variable slope model of non-linear regression to obtain the KD values. Data are from three independent experiments, each performed in technical triplicates.
(§2) 5. Isothermal titration calorimetry
(§3) Isothermal titration calorimetry (ITC) was used to measure the binding of the Ac-ITSM(pTyr) to the SHP2 C-SH2 or N-SH2 domain. […]
(In ITC the heat of successive injections is recorded.)

A further assay has as its target T3, SHP2 N‐SH2 domain (Homo sapiens, UniProt Q06124).
T3 construct: SHP2 N-SH2 domain (1–105), C-SH2 domain (106–220), PTP domain (224–541) and; His6 (pETM22 vector) (N, cleaved yes); made in house; host or cells: E. coli BL21(DE3)
T3 sequence (Q06124 1-105): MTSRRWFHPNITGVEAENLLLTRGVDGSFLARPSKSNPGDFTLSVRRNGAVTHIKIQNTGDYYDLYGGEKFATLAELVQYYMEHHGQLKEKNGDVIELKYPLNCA
As to the kind of experiment: Isothermal titration calorimetry (ITC), SHP2 N-SH2 domain. It counts as binding. As to conditions: 20 mM Tris-HCl pH 7.6, 150 mM NaCl, 1:1 stoichiometry assumed, one experiment, read-out: K D, N‐SH2 (ITC). As to the method:
as §1, §2, §3

For `CC[C@H](C)[C@H](NC(=O)[C@@H](NC(=O)[C@H](C)NC(=O)[C@H](Cc1ccc(OP(=O)(O)O)cc1)NC(=O)[C@H](CCC(=O)O)NC(=O)[C@@H](NC(=O)[C@H](CCC(N)=O)NC(=O)[C@H](CCC(=O)O)NC(C)=O)[C@@H](C)O)[C@@H](C)O)C(=O)N[C@H](C(=O)N[C@@H](Cc1ccccc1)C(=O)N1CCC[C@H]1C(N)=O)C(C)C` [Ac‐ITSM(pTyr)] (Ac-EQTE[pY]ATIVFP-NH2), the “SHP2 phosphatase activity with peptide alone (activation)” value at full‐length SHP2 is reported as “increased”. The Kd at SHP2 C‐SH2 domain was 58.8 nM; at SHP2 N‐SH2 domain it was 106 nM.
